This note sets out measurements from patent publication US9592217B2, “Method for treating skin inflammatory diseases” (Olatec Therapeutics LLC, priority 2012, dated 2017).

Read-outs that look alike come from different tables or passages of the source.

Format in all cases: in vivo
The subject of data set [1] is arachidonic acid induced ear swelling. Description: Topical arachidonic acid induced ear swelling model in mice. As to conditions: 30 min before and 15 min after arachidonic acid, measured at 90 minutes. The method, then:
Purified 3-methanesulfonylpropionitrile was dissolved in vehicle (ethanol/acetone 1:1) to 5% (w/v). The active compound, indomethacin (positive control in vehicle), and vehicle were topically applied to mice and evaluated for anti-inflammatory activity in the topical arachidonic acid induced ear swelling model in mice, which is a model of irritant contact dermatitis.
Male ICR mice weighing 22±2 g were used and randomly divided; each group had 10 mice. Arachidonic Acid (0.5 mg in 20 μl of acetone:ethanol/1:1) was applied topically to the anterior and posterior surfaces of the right ear of each mice. Test substance and vehicle, as listed in Table 3 were similarly applied 30 min before and 15 min after arachidonic acid application. The thickness of the right ear and the left ear was measured and the difference calculated as an indication of the inflammation in the right ear. Ear swelling was measured by a Dyer model micrometer gauge at 60 and 90 minutes after arachidonic acid application as an index of inflammation. Percent inhibition was calculated according to the formula: Ic−It/Ic×100, where Ic and It refers to increase of ear thickness (mm) in control and treated mice, respectively. ANOVA and Dunnett's test were employed to ascertain significant difference between vehicle control and treated groups. Significance is set at P<0.05 level.

Data set [2] can be described thus: Systemic (plasma) exposure after oral and subcutaneous administration to rats. The method, then: This study was done to determine the systemic (plasma) exposure of MSPN after administration by the oral and subcutaneous routes to rats.
MSPN substance was prepared in water for oral administration and in saline for subcutaneous administration. Rats weighed 282 to 295 g were used in the study. Male rats (n=2) were given a single dose at 50, 160 or 500 mg/kg by both oral and subcutaneous routes. Female rats (n=2) were dosed only at 500 mg/kg by both oral and subcutaneous routes. The blood was drawn from each rat at 0.25, 1, 2, 3, 4, 6, 12, 24, and 48 hours and measured for MSPN concentration by LC/MS/MS.

Data set [3] concerns rats. Description: Oral systemic toxicity in rats.
Data set [4] concerns dogs. Description: Oral systemic toxicity in dogs.
[5] abbreviates: decreased body temperature, decreased respiratory rate, increased blood pressure, increased heart rate.

In the case of `COc1ccc2c(c1)c(CC(=O)O)c(C)n2C(=O)c1ccc(Cl)cc1` [Indomethacin, indomethacin, reference compound], the “% Inhibition of ear swelling” value in data set [1] ((0.5% w/v), 0.1 mg/20 μL) was found to be 53%.
With `CS(=O)(=O)CCC#N` [MSPN, 3-methanesulfonylpropionitrile], the “% Inhibition of ear swelling” value in data set [1] (375 mM (5% w/v), 1 mg/20 μL) came out at 36%. The Cmax in data set [2] (rat, plasma, 500 mg/kg, heading: average maximum plasma concentration, male rats, oral, single dose 500 mg/kg, read-out: average maximum plasma concentration (Cmax)) was 12 µg/mL; in data set [2] (rat, plasma, sc, 500 mg/kg, heading: average Cmax, female rats, subcutaneous, single dose 500 mg/kg, read-out: average Cmax), 9.5 µg/mL; in data set [2] (rat, plasma, sc, male rats, subcutaneous, single dose 50 mg/kg, read-out: average maximum plasma concentration (Cmax)) it was 160 µg/mL; in data set [2] (rat, plasma, sc, male rats, subcutaneous, single dose 160 mg/kg, read-out: average maximum plasma concentration (Cmax)), 760 µg/mL; in data set [2] (rat, plasma, sc, male rats, subcutaneous, single dose 500 mg/kg, read-out: average maximum plasma concentration (Cmax)), 3300 µg/mL; in data set [2] (rat, plasma, female rats, oral, single dose 500 mg/kg, read-out: average Cmax) it was 3800 µg/mL. For the same molecule, the Cmax in data set [2] (rat, plasma, male rats, oral, single dose 50 mg/kg, read-out: average maximum plasma concentration (Cmax)) is 160 µg/mL; in data set [2] (rat, plasma, male rats, oral, single dose 160 mg/kg, read-out: average maximum plasma concentration (Cmax)) it was 560 µg/mL. In data set [2] (rat, plasma, rats, both routes (oral, subcutaneous) and both sexes, read-out: Half-lives), the half-life was in the range of 8 to 15 h. Moreover, the bioavailability result in data set [2] (rats, after both the oral and subcutaneous routes) was “significant bioavailability”. For the same molecule, the “doses at which effects were seen, relative to expected human therapeutic doses” value in data set [3] and in data set [4] was “over 2000 fold” throughout. Also, the “effects seen after oral, systemic toxicity administration” value in data set [3] (setting [5]) and in data set [4] (setting [5]) was “mild physiological effects” in each case.
